Where two headings read alike, the source gives them in different places.
Key:
[1] = tested on: PC-3 (prostate cancer) cell line; test: SRB in-vitro cytotoxicity assay, PC-3; conditions: Homo sapiens
Description: (§1) All the ring annulated analogues of cannabinoid were evaluated for their cytotoxicity against number of human cancer cell lines. To evaluate the in-vitro cytotoxicity, a sulphorhodamine B (SRB) assay was carried out. SRB is a negatively charged pink aminoxanthine dye that binds to the basic amino acid of cells in mildly acidic conditions and is removed in basic conditions. […] When cells reached 60-70% confluency, trypsinized and seeded in 96 well plates according to their inoculation density and incubated for 24 hours to attain their proper morphology. Next-day cells were again incubated for 48 hours with test compounds or paclitaxel (positive control). Next, cells were fixed with 50% of ice-cold TCA for 1 hours, washed with distilled water, and kept for air drying. Air-dried plates were then stained with 0.4% SRB dye for 30 minutes and subsequently with water and 1% v/v glacial acetic acid were then kept for air drying. […] The viability of cells is measured based on bound dye after fixation, which is measured by absorbance at 540 nm.

[2] = tested on: HCT-116 (colorectal cancer) cell line; test: SRB in-vitro cytotoxicity assay, HCT-116; conditions: Homo sapiens
Description: as §1

[3] = tested on: U251 (glioblastoma) cell line; test: SRB in-vitro cytotoxicity assay, U251; conditions: Homo sapiens
Description: as §1

[4] = tested on: A549 (lung cancer) cell line; test: SRB in-vitro cytotoxicity assay, A549; conditions: Homo sapiens
Description: as §1

[5] = tested on: MCF-7 (breast cancer) cell line; test: SRB in-vitro cytotoxicity assay, MCF-7; conditions: Homo sapiens
Description: as §1

in vitro = conditions: human
Description: as §1

[6] = tested on: HEK-293 (normal cell lines); test: SRB in-vitro cytotoxicity assay, HEK-293; conditions: Homo sapiens, HEK293, read-out: inhibition against HEK-293 cell lines
Description: as §1

[7] = tested on: Mia-PaCa (pancreatic cancer) cell line; test: SRB in-vitro cytotoxicity assay, Mia-PaCa; conditions: Homo sapiens
Description: as §1

[8] = 48 h, read-out: Cytotoxicity (in vitro cell inhibition) PC3
[9] = PC-3, read-out: inhibition against PC3 cell lines
[10] = HCT-116, 48 h, read-out: Cytotoxicity (in vitro cell inhibition) HCT-116
[11] = HCT-116, read-out: inhibition against HCT-116 cell lines
[12] = U-251, 48 h, read-out: Cytotoxicity (in vitro cell inhibition) U251
[13] = A549, 48 h, read-out: Cytotoxicity (in vitro cell inhibition) A549
[14] = A549, read-out: inhibition against A549 cell lines
[15] = MCF7, 48 h, read-out: Cytotoxicity (in vitro cell inhibition) MCF-7
[16] = MCF7, read-out: inhibition against MCF-7 cell lines
[17] = U-251, read-out: inhibition against U251 cell lines
[18] = MIA PaCa-2, 48 h, read-out: Cytotoxicity (in vitro cell inhibition) Mia-PaCa
[19] = MIA PaCa-2, read-out: inhibition against Mia-PaCa cell lines

SMILES | inhibition at 20 µM [1, 8] [%] | inhibition at 20 µM [1, 9] [%] | inhibition at 20 µM [2, 10] [%] | inhibition at 20 µM [2, 11] [%] | inhibition at 20 µM [3, 12] [%] | inhibition at 20 µM [4, 13] [%] | inhibition at 20 µM [4, 14] [%] | inhibition at 20 µM [5, 15] [%] | inhibition at 20 µM [5, 16] [%] | inhibition at 20 µM [3, 17] [%] | inhibition at 20 µM (in vitro) [%] | inhibition at 20 µM [7, 18] [%] | inhibition at 20 µM [7, 19] [%] | inhibition at 48 h, 20 µM (in vitro) [%] | also measured
C=C(C)[C@@H]1CCC(C)=C[C@H]1c1c(O)cc(CCCCC)cc1O [IIa, cannabidiol] | 50 to 70 | > 50 | > 70 | > 70 | < 50 | > 70 | > 70 | 50 to 70 | > 50 |  |  |  |  |  | 
C=C(C)[C@@H]1CCC(C)=C[C@H]1c1c(O)cc(CCCCC)c2c1OCN(C)C2 [Ia, (N-methyldihydrol-2H-oxazinyl)-cannabidiol] | > 70 | > 70 | 50 to 70 | > 50 | > 70 | > 70 | > 70 | > 70 | > 70 | > 70 | > 70 | > 70 | > 70 |  | inhibition at 20 µM [6]: > 70%
C=C(C)[C@@H]1CCC(C)=C[C@H]1c1c(O)cc(CCCCC)c2c1OCN(CC)C2 [Ib, (N-ethyldihydrol-2H-oxazinyl)-cannabidiol] | > 70 | > 70 | 50 to 70 | > 50 | 50 to 70 | > 70 | > 70 | > 70 | > 70 | > 50 | 50 to 70 | > 70 | > 70 |  | inhibition at 20 µM [6]: > 50%
C=C(C)[C@@H]1CCC(C)=C[C@H]1c1c(O)cc(CCCCC)c2c1OCN(CCC)C2 [Ic, (N-propyldihydrol-2H-oxazinyl)-cannabidiol] | 50 to 70 | > 50 | 50 to 70 | > 50 | 50 to 70 | 50 to 70 | > 50 | > 70 | > 70 | > 50 | < 50 | > 70 | > 70 |  | 
C=C(C)[C@@H]1CCC(C)=C[C@H]1c1c(O)cc(CCCCC)c2c1OCN(CCCC)C2 [Id, (N-butyldihydrol-2H-oxazinyl)-cannabidiol] | > 70 | > 70 | > 70 | > 70 | 50 to 70 | > 70 | > 70 | > 70 | > 70 | > 50 | < 50 | > 70 | > 70 |  | IC50 ([1]; read-out: IC50 against PC-3): 4.2 µM; IC50 ([2]; HCT-116, read-out: IC50 against HCT-116): 4.1 µM; IC50 ([3]; U-251, read-out: IC50 against U251): 17.4 µM; IC50 ([4]; A549, read-out: IC50 against A549): 9.36 µM; IC50 ([5]; MCF7, read-out: IC50 against MCF-7): 2.89 µM; IC50 ([7]; MIA PaCa-2, read-out: IC50 against Mia-PaCa-2): 11.5 µM
C=C(C)[C@@H]1CCC(C)=C[C@H]1c1c(O)cc(CCCCC)c2c1OCN(CCCCCC)C2 [Ie, (N-hexyldihydrol-2H-oxazinyl)-cannabidiol] | < 50 |  | > 70 | > 70 | < 50 | < 50 |  | > 70 | > 70 |  |  | < 50 |  | < 50 | 
C=C(C)[C@@H]1CCC(C)=C[C@H]1c1c(O)cc(CCCCC)c2c1OCN(CCCN1CCOCC1)C2 [If, (N-morpholinopropyldihydrol-2H-oxazinyl)-cannabidiol] | > 70 | > 70 | 50 to 70 | > 50 | > 70 | > 70 | > 70 | > 70 | > 70 | > 70 |  | > 70 | > 70 | 50 to 70 | inhibition at 20 µM [6]: > 50%
C=C(C)[C@@H]1CCC(C)=C[C@H]1c1c(O)cc(CCCCC)c2c1OCN(C1CC1)C2 [Ig, (N-cyclopropyldihydrol-2H-oxazinyl)-cannabidiol] | 50 to 70 | > 50 | 50 to 70 | > 50 | < 50 | 50 to 70 | > 50 | 50 to 70 | > 50 |  | < 50 | < 50 |  |  | 
C=C(C)[C@@H]1CCC(C)=C[C@H]1c1c(O)cc(CCCCC)c2c1OCN(C1CCCCCC1)C2 [Ii, (N-cycloheptyldihydrol-2H-oxazinyl)-cannabidiol] | 50 to 70 | > 50 | 50 to 70 | > 50 | < 50 | > 70 | > 70 | > 70 | > 70 |  |  | > 70 | > 70 | < 50 | 
C=C(C)[C@@H]1CCC(C)=C[C@H]1c1c(O)cc(CCCCC)c2c1OCN(c1ccccc1)C2 [Ij, (N-phenyldihydrol-2H-oxazinyl)-cannabidiol] | < 50 |  | < 50 |  | < 50 | < 50 |  | < 50 |  |  |  | < 50 |  | < 50 | 
C=C(C)[C@@H]1CCC(C)=C[C@H]1c1c(O)cc(CCCCC)c2c1OCN(c1ccc(C(C)C)cc1)C2 [Ik, (N-isopropylphenyldihydrol-2H-oxazinyl)-cannabidiol] | < 50 |  | < 50 |  | < 50 | < 50 |  | < 50 |  |  |  | < 50 |  | < 50 | 
C=C(C)[C@@H]1CCC(C)=C[C@H]1c1c(O)cc(CCCCC)c2c1OCN(c1ccc(OC(F)(F)F)cc1)C2 [Il, (N-trifluoromethoxyphenyldihydrol-2H-oxazinyl)-cannabidiol] | < 50 |  | < 50 |  | < 50 | < 50 |  | < 50 |  |  |  | < 50 |  | < 50 | 
C=C(C)[C@@H]1CCC(C)=C[C@H]1c1c(O)cc(CCCCC)c2c1OCN(c1cnc3ccccc3c1)C2 [Im, (N-quinolinedihydrol-2H-oxazinyl)-cannabidiol] | < 50 |  | < 50 |  | < 50 | < 50 |  | < 50 |  |  |  | < 50 |  | < 50 | 
C=C(C)[C@@H]1CCC(C)=C[C@H]1c1c(O)cc(CCCCC)c2c1OCN(Cc1ccccc1)C2 [In, (N-benzyldihydrol-2H-oxazinyl)-cannabidiol] |  | > 50 |  | > 50 | < 50 |  | > 50 | < 50 |  |  |  | < 50 |  | < 50 | 
C=C(C)[C@@H]1CCC(C)=C[C@H]1c1c(O)cc(CCCCC)c2c1OCN(c1ccccc1F)C2 [Io, (N-2-fluorophenyldihydrol-2H-oxazinyl)-cannabidiol] | < 50 |  | < 50 |  | < 50 | < 50 |  | < 50 |  |  |  | < 50 |  | < 50 | 

— patent US20260216216A1, “(N-ALKYLDIHYDROL-2H-OXAZINYL)-CANNABIDIOL AS ANTI-PROLIFERATIVE AGENT AND PROCESS FOR PREPARATION THEREOF” (COUNCIL OF SCIENTIFIC AND INDUSTRIAL RESEARCH, priority 2022, published 2026)
